{
  "source": "patent US20150284347A1",
  "about": "“NEW BENZENE SULFONAMIDE THIAZOLE COMPOUNDS” (INSERM (INSTITUT NATIONAL DE LA SANTÉ ET DE LA RECHERCHE …, priority 2012, published 2015)",
  "key": {"[1]": {"tested_on": "colon cells HT29", "experiment": "Trypan blue cell viability, HT29", "format": "cell-based", "conditions": "10 μM, HT29, trypan blue exclusion, FIG. 1", "protocol": "Cell viability was assessed by measuring the number of cells alive in samples of two different kind of prostate cells, respectively noted LNCAP and PC3, of breast cells noted MCF7, of colon cells noted HT29, of metastatic melanoma cell lines A375 and of melanoma cells from patients noted GIC. The measure of cell viability as performed by cell counting using the trypan blue exclusion method. Results were expressed as the percentage of cells alive relatively to the number of living cells in the presence of DMSO, which corresponds to the negative control associated to the 100% value. Cells were seeded in 6-well plates (60000 cells/well), depleted and incubated with compounds for the times indicated. Then cells were detached in the presence of 2000 of […] (Thermo) and 2 ml of RPMI 1640 Glutamax (Gibco) was added to the cell solution. 100 of this solution was stained for 1 minute with 100 of 0.4% trypan blue before counting with a Malassez chamber. The effect of compound on cell viability was studied on different types of cells. […] Cancer cells from prostate, breast, colon and melanoma A375 came from cell lines cultures. […] Results are expressed as percentage of cells alive relatively to the number of living cells in the presence of DMSO, which corresponds to the negative control associated to the 100% value. […]"}, "[2]": {"tested_on": "melanoma cells from patients GIC", "experiment": "Trypan blue cell viability, patient melanoma cells GIC", "format": "cell-based, human", "conditions": "10 μM, trypan blue exclusion, FIG. 1", "protocol": "Cell viability was assessed by measuring the number of cells alive in samples of two different kind of prostate cells, respectively noted LNCAP and PC3, of breast cells noted MCF7, of colon cells noted HT29, of metastatic melanoma cell lines A375 and of melanoma cells from patients noted GIC. The measure of cell viability as performed by cell counting using the trypan blue exclusion method. Results were expressed as the percentage of cells alive relatively to the number of living cells in the presence of DMSO, which corresponds to the negative control associated to the 100% value. Patient melanoma cells were prepared from biopsy after digestion for 1-2 h with collagenase A (0.33 U/ml), dispase (0.85 U/ml) and Dnase I (144 U/ml) at 37° C. Large debris were removed by filtration through a […] cell strainer. Cells were seeded in 6-well plates (60000 cells/well), depleted and incubated with compounds for the times indicated. Then cells were detached in the presence of 2000 of […] (Thermo) and 2 ml of RPMI 1640 Glutamax (Gibco) was added to the cell solution. 100 of this solution was stained for 1 minute with 100 of 0.4% trypan blue before counting with a Malassez chamber. […] Results are expressed as percentage of cells alive relatively to the number of living cells in the presence of DMSO, which corresponds to the negative control associated to the 100% value. […]"}, "[3]": {"tested_on": "A375 melanoma cells", "experiment": "A375 melanoma xenograft tumor development in nude mice", "format": "in vivo", "conditions": "0.7 mg/mouse/day over 24 days, athymic nude mice", "protocol": "To assess a potential antineoplastic effect of (HA15) and (SR50) in vivo, A375 melanoma cells (2.5×10^6) were injected subcutaneously in 6-week-old female athymic nude mice and treated 5 days later by injection of vehicle (labrafil) or different compounds such as PLX4032, (HA15) and (SR50) (0.7 mg/mouse/day) over a period of 24 days. Inhibitory effect is expressed as the tumor volume (mm^3) on day 8, 11, 15, 18, 22 and 24.\nAthymic BALB/C nu/nu mice (Harlan) were used. The animals were 6 weeks old and weighed between 20 and 25 g. The mice were housed in the animal's C3M in a 12 h/12 h cycle. The animals received water and food ad libitum. Mice were first acclimated for one week and then injected with A375 cells (2.5 million cells in 200 μl of PBS) subcutaneously into the right and left sides. Treatment was started eight days after injection of cancer cells (when tumors were visible). The various compounds were diluted in a mixture of Labrafil (90%) (Gattefosse), Tween 80 (1%) and N,N-Dimethylacetamide (9%). Five groups of six mice treated every day intraperitoneally with 0.7 mg/day of PLX4032, SR44 (HA15), SR47 (HA32), SR50 (JG25) or with the mixture of Labrafil in control were defined. Three times a week the tumor size was measured using a caliper. […]"}},
  "data": [
    {"smiles": "CC(=O)Nc1nc(-c2cccc(NS(=O)(=O)c3cccc4c(N(C)C)cccc34)c2)cs1", "note": "[HA15, N-(4-(3-(5-(dimethylamino)naphthalene-1-sulfonamido)phenyl)thiazol-2-yl)acetamide]", "values": [
      {"measurement": "cell viability (cells alive relative to DMSO)", "setting": "[1]", "value": "viability greatly reduced"},
      {"measurement": "cell viability (cells alive relative to DMSO)", "setting": "[2]", "value": "viability greatly reduced"},
      {"measurement": "ability of cells to develop visible tumors", "setting": "[3]", "value": "markedly attenuated"}
    ]}
  ]
}
